# Laboratory results as given in ChEMBL document CHEMBL5046233, “Nitroxoline and its derivatives are potent inhibitors of metallo-β-lactamases” (Eur J Med Chem, 2022).
# The source made the active and inactive calls. The rule behind the calls is not given here.
# Columns and labels:
# [1] = Inhibition of recombinant NDM-1 (unknown origin) using fluorocillin as substrate at 30 uM incubated for 30 mins by fluorescence based assay; details: Bacteria
# [2] = Inhibition of recombinant NDM-1 (unknown origin) using fluorocillin as substrate at 10 uM incubated for 30 mins by fluorescence based assay; details: Bacteria
# [3] = Inhibition of recombinant NDM-1 (unknown origin) using fluorocillin as substrate at 3 uM incubated for 30 mins by fluorescence based assay; details: Bacteria
# [4] = test system: Bacteria; assay: Inhibition of recombinant VIM-1 (unknown origin) using fluorocillin as substrate at 30 uM incubated for 30 mins by fluorescence based assay
# [5] = test system: Bacteria; assay: Inhibition of recombinant VIM-1 (unknown origin) using fluorocillin as substrate at 10 uM incubated for 30 mins by fluorescence based assay
# [6] = test system: Bacteria; assay: Inhibition of recombinant VIM-1 (unknown origin) using fluorocillin as substrate at 3 uM incubated for 30 mins by fluorescence based assay
# [7] = test system: Bacteria; assay: Inhibition of recombinant IMP-1 (unknown origin) using fluorocillin as substrate at 30 uM incubated for 30 mins by fluorescence based assay
# [8] = test system: Bacteria; assay: Inhibition of recombinant IMP-1 (unknown origin) using fluorocillin as substrate at 10 uM incubated for 30 mins by fluorescence based assay
# [9] = test system: Bacteria; assay: Inhibition of recombinant IMP-1 (unknown origin) using fluorocillin as substrate at 3 uM incubated for 30 mins by fluorescence based assay
# [10] = Cytotoxicity against human HUVEC cells assessed as metabolic activity measured after 24 hrs by cell-titer blue assay; assay type: toxicity, cell-based
# [11] = test system: Klebsiella pneumoniae; assay: Antimicrobial activity against Klebsiella pneumoniae clinical isolate T2301 expressing NDM-1 assessed as inhibition of bacterial growth by CLSI protocol based broth microdilution assay; assay type: functional
# [12] = test system: Escherichia coli; assay: Antimicrobial activity against Escherichia coli clinical isolate T2228 expressing VIM-1 assessed as inhibition of bacterial growth by CLSI protocol based broth microdilution assay; assay type: functional
# [13] = test system: Escherichia coli; assay: Antimicrobial activity against Escherichia coli T2359 expressing NDM-1 assessed as inhibition of bacterial growth by CLSI protocol based broth microdilution assay; assay type: functional
# [14] = test system: Escherichia coli; assay: Antimicrobial activity against Escherichia coli T2544 expressing VIM-1 assessed as inhibition of bacterial growth by CLSI protocol based broth microdilution assay; assay type: functional
# [15] = test system: Serratia marcescens; assay: Antimicrobial activity against Serratia marcescens T2352 expressing NDM-1 assessed as inhibition of bacterial growth by CLSI protocol based broth microdilution assay; assay type: functional
# [16] = test system: Enterobacter cloacae; assay: Antimicrobial activity against Enterobacter cloacae T2311 expressing NDM-1 assessed as inhibition of bacterial growth by CLSI protocol based broth microdilution assay; assay type: functional
# [17] = test system: Escherichia coli; assay: Antimicrobial activity against Escherichia coli T2351 expressing NDM-5 assessed as inhibition of bacterial growth by CLSI protocol based broth microdilution assay; assay type: functional
# [18] = test system: Pseudomonas aeruginosa; assay: Antimicrobial activity against Pseudomonas aeruginosa T2325 expressing IMP-1 assessed as inhibition of bacterial growth by CLSI protocol based broth microdilution assay; assay type: functional
# [19] = test system: Pseudomonas aeruginosa; assay: Antimicrobial activity against Pseudomonas aeruginosa T1098 expressing IMP-7 assessed as inhibition of bacterial growth by CLSI protocol based broth microdilution assay; assay type: functional
# [20] = test system: Citrobacter freundii; assay: Antimicrobial activity against Citrobacter freundii T2354 expressing VIM-4 assessed as inhibition of bacterial growth by CLSI protocol based broth microdilution assay; assay type: functional
# [21] = test system: Enterobacter cloacae; assay: Antimicrobial activity against Enterobacter cloacae T2353 expressing VIM-1 assessed as inhibition of bacterial growth by CLSI protocol based broth microdilution assay; assay type: functional
# [22] = test system: Pseudomonas aeruginosa; assay: Antimicrobial activity against Pseudomonas aeruginosa T2357 expressing VIM-1 assessed as inhibition of bacterial growth by CLSI protocol based broth microdilution assay; assay type: functional
# [23] = test system: Klebsiella pneumoniae; assay: Antimicrobial activity against Klebsiella pneumoniae T2216 expressing VIM-1 assessed as inhibition of bacterial growth by CLSI protocol based broth microdilution assay; assay type: functional
# [24] = test system: Pseudomonas aeruginosa; assay: Antimicrobial activity against Pseudomonas aeruginosa T2217 expressing VIM-2 assessed as inhibition of bacterial growth by CLSI protocol based broth microdilution assay; assay type: functional
# [25] = test system: Pseudomonas aeruginosa; assay: Antimicrobial activity against Pseudomonas aeruginosa T2282 expressing VIM-2 assessed as inhibition of bacterial growth by CLSI protocol based broth microdilution assay; assay type: functional
# [26] = test system: Pseudomonas aeruginosa; assay: Antimicrobial activity against Pseudomonas aeruginosa T2283 expressing VIM-2 assessed as inhibition of bacterial growth by CLSI protocol based broth microdilution assay; assay type: functional
# [27] = test system: Pseudomonas aeruginosa; assay: Antimicrobial activity against Pseudomonas aeruginosa T2229 expressing SPM-1 assessed as inhibition of bacterial growth by CLSI protocol based broth microdilution assay; assay type: functional
# [28] = test system: Enterobacter cloacae; assay: Antimicrobial activity against Enterobacter cloacae T2218 expressing GIM-1 assessed as inhibition of bacterial growth by CLSI protocol based broth microdilution assay; assay type: functional
# [29] = test system: Escherichia coli; assay: Antimicrobial activity against Escherichia coli T2435 expressing KPC-2 assessed as inhibition of bacterial growth by CLSI protocol based broth microdilution assay; assay type: functional
# [30] = test system: Citrobacter freundii; assay: Antimicrobial activity against Citrobacter freundii expressing T2431 KPC-3 assessed as inhibition of bacterial growth by CLSI protocol based broth microdilution assay; assay type: functional
# [31] = test system: Klebsiella pneumoniae; assay: Antimicrobial activity against Klebsiella pneumoniae T2432 expressing KPC-9 assessed as inhibition of bacterial growth by CLSI protocol based broth microdilution assay; assay type: functional
# [32] = test system: Escherichia coli; assay: Antimicrobial activity against Escherichia coli T2433 expressing OXA-48 assessed as inhibition of bacterial growth by CLSI protocol based broth microdilution assay; assay type: functional
# [33] = test system: Klebsiella pneumoniae; assay: Antimicrobial activity against Klebsiella pneumoniae T2301 expressing NDM-1 assessed as assessed as inhibition of bacterial growth at 0.5XMIC measured after 24 hrs by time-kill assay; assay type: functional, organism-based
# [34] = test system: Escherichia coli; assay: Antimicrobial activity against Escherichia coli T2359 expressing VIM-1 assessed as assessed as inhibition of bacterial growth at 0.5XMIC measured after 24 hrs by time-kill assay; assay type: functional, organism-based
# [35] = test system: Klebsiella pneumoniae; assay: Antimicrobial activity against Klebsiella pneumoniae T2301 expressing NDM-1 assessed as inhibition of bacterial growth at 0.5XMIC for 6 hrs by CLSI protocol based broth microdilution assay; assay type: functional, organism-based
# [36] = test system: Escherichia coli; assay: Antimicrobial activity against Escherichia coli T2359 expressing VIM-1 assessed as inhibition of bacterial growth at 0.5XMIC for 6 hrs by CLSI protocol based broth microdilution assay; assay type: functional, organism-based
# [37] = test system: Escherichia coli; details: T2228
compound,measurement,setting,value
O=[N+]([O-])c1ccc(O)c2ncccc12 [NITROXOLINE],inhibition,[1],99%
same,inhibition,[2],81%
same,inhibition,[3],< 20%
same,inhibition,[4],75%
same,inhibition,[5],31%
same,inhibition,[6],< 20%
same,inhibition,[7],95%
same,inhibition,[8],42%
same,inhibition,[9],< 20%
same,IC50 at 24 h,[10],283 µg/mL
CO/N=C(\C(=O)N[C@@H]1C(=O)N2C(C(=O)O)=C(COC(N)=O)CS[C@H]12)c1ccco1 [CEFUROXIME],MIC,[11],8.19 µg/mL
same,MIC,[12],1.02 µg/mL
C[C@@H](O)[C@H]1C(=O)N2C(C(=O)O)=C(S[C@@H]3CN[C@H](C(=O)N(C)C)C3)[C@H](C)[C@H]12 [MEROPENEM],MIC,[11],0.128 µg/mL
same,MIC,[12],0.008 µg/mL
Nc1ccc2c([N+](=O)[O-])ccc(O)c2n1,inhibition,[1],93%
same,inhibition,[2],46%
same,inhibition,[3],< 20%
same,inhibition,[4],72%
same,inhibition,[5],37%
same,inhibition,[6],20%
same,inhibition,[7],74%
same,inhibition,[8],38%
same,inhibition,[9],< 20%
O=C(O)c1ccc2cccc(O)c2n1,inhibition,[1],100%
same,inhibition,[2],97%
same,inhibition,[3],24%
same,inhibition,[4],91%
same,inhibition,[5],54%
same,inhibition,[6],32%
same,inhibition,[7],95%
same,inhibition,[8],72%
same,inhibition,[9],27%
CC(C)(O/N=C(\C(=O)N[C@@H]1C(=O)N2C(C(=O)[O-])=C(C[n+]3ccccc3)CS[C@H]12)c1csc(N)n1)C(=O)O [CEFTAZIDIME],MIC,[11],4.1 µg/mL
same,MIC,[12],0.256 µg/mL
C[C@@H](O)[C@H]1C(=O)N2C(C(=O)O)=C(SCCNC=N)C[C@H]12 [IMIPENEM ANHYDROUS],MIC,[13],0.128 µg/mL
same,MIC,[14],0.032 µg/mL
same,MIC,[11],0.016 µg/mL
same,MIC,[12],0.008 µg/mL
same,MIC,[15],0.256 µg/mL
same,MIC,[16],0.008 µg/mL
same,MIC,[17],0.008 µg/mL
same,MIC,[18],0.032 µg/mL
same,MIC,[19],0.128 µg/mL
same,MIC,[20],2 µg/mL
same,MIC,[21],0.008 µg/mL
same,MIC,[22],0.256 µg/mL
same,MIC,[23],0.004 µg/mL
same,MIC,[24],0.256 µg/mL
same,MIC,[25],0.256 µg/mL
same,MIC,[26],0.032 µg/mL
same,MIC,[27],0.512 µg/mL
same,MIC,[28],0.002 µg/mL
same,MIC,[29],0.004 µg/mL
same,MIC,[30],0.008 µg/mL
same,MIC,[31],0.032 µg/mL
same,MIC,[32],0.002 µg/mL
same,inhibition,[33],Active
same,inhibition,[34],Active
same,inhibition,[35],Active
same,inhibition,[36],Active
GENTAMICIN,MIC,[37],0.002 µg/mL
Cc1ccc2c(Cl)cc(Cl)c(O)c2n1,inhibition,[1],91%
same,inhibition,[2],71%
same,inhibition,[3],< 20%
same,inhibition,[4],84%
same,inhibition,[5],58%
same,inhibition,[6],20%
same,inhibition,[7],92%
same,inhibition,[8],73%
same,inhibition,[9],22%
CN(CC#N)Cc1ccc2c([N+](=O)[O-])ccc(O)c2n1,inhibition,[1],93%
same,inhibition,[2],47%
same,inhibition,[3],< 20%
same,inhibition,[4],92%
same,inhibition,[5],53%
same,inhibition,[6],23%
same,inhibition,[7],78%
same,inhibition,[8],38%
same,inhibition,[9],< 20%
O=C(O)c1ccc2c([N+](=O)[O-])cc([N+](=O)[O-])c(O)c2n1,inhibition,[1],96%
same,inhibition,[2],90%
same,inhibition,[3],< 20%
same,inhibition,[4],86%
same,inhibition,[5],57%
same,inhibition,[6],34%
same,inhibition,[7],91%
same,inhibition,[8],47%
same,inhibition,[9],< 20%
CCN1CCN(C(=O)N[C@@H](C(=O)N[C@@H]2C(=O)N3[C@@H]2SC(C)(C)[C@@H]3C(=O)O)c2ccccc2)C(=O)C1=O [PIPERACILLIN],MIC,[11],4.1 µg/mL
same,MIC,[12],1.02 µg/mL
